Assay results published in patent publication US10251893B2 (NOVARTIS AG, priority 2009, dated 2019).

Test system: Wnt signaling
Test: Wnt-Luc reporter assay for pathway inhibition of Wnt signaling
Format: cell-based, Mouse (TM3 Wnt-Luc cells) or Human (293 Wnt-Luc cells)
Settings: 24 h, Wnt-Luc reporter cells co-cultured with L-cell Wnt3a cells, luciferase luminescence reduced by 50%
From the text: The exemplified compounds of the invention are summarized in Table 1, with IC50 values measured using Wnt-Luc reporter assays.

| IC50 [nM] | SMILES |
| --- | --- |
| < 0.11 | Cc1cc(-c2ccc(CC(=O)Nc3ccc(-c4ccccc4)nc3)cc2)ccn1 [compound 36] |
| < 0.09 | Cc1cc(-c2ccc(CC(=O)Nc3ccc(-c4cccc(F)c4)cn3)cc2)ccn1 [compound 56] |
| < 0.14 | Cc1cc(-c2ccc(CC(=O)Nc3ccc(-c4ccccc4)cn3)cn2)ccn1 [compound 51] |
| < 0.4 | Cc1cc(-c2ccc(CC(=O)Nc3ccc(-c4ccccc4)cn3)cc2)ccn1 [Cpd 26] |
| < 0.11 | Cc1cc(-c2ccc(CC(=O)Nc3ccc(-c4cccnc4)cc3)cc2)ccn1 [compound 59] |
| < 0.1 | Cc1cc(CC(=O)Nc2ccc(-c3cccc(F)c3)cn2)cnc1-c1ccnnc1 [Cpd 74] |

| SMILES | IC50 [nM] |
| --- | --- |
| Cc1cc(-c2ncc(CC(=O)Nc3ccc(-c4cnccn4)cn3)cc2C)ccn1 [Cpd 86] | 0.38 |
